Patent US4238472A, “Radioimmunoassay for chlorinated dibenzo-p-dioxins” (priority 1978, dated 1980)

Key:
antiserum F-12 [1] = assay: Specificity / cross reactivity of the radioimmunoassay, antiserum F-12; type: binding, rabbit
Source text: (§1) Since TCDD itself has no chemically reactive functional groups, a derivative was synthesized that retained most of the structural features of TCDD but with the addition of a reactive site. This derivative was coupled to an immunogenic protein carrier, such as bovine serum albumin, rabbit serum albumin, etc., so that animals would respond to it by producing an antiserum containing antibodies. A second compound was synthesized, still structurally similar to TCDD so that it would bind to the antibodies, but capable of being labeled with ^125 I for detectability at the picogram level. An amount of antiserum capable of binding about 20 pg of ^125 I-labeled dioxin derivative (hapten) is preincubated with the detergent emulsion of the sample extract (possibly containing TCDD). Then the mixture is incubated with the ^125 I-labeled derivative long enough for equilibrium binding to occur and form the hapten-antibody complex. A second antibody, namely, goat antibodies against rabbit gamma-globulin (i.e., goat anti-rabbit γ-globulin) are then added to precipitate the antibody ^125 I-labeled dioxin complex, and the amount of ^125 I in the precipitate is determined. The extent to which preincubation with the test material inhibits or decreases the amount of ^125 I precipitated relative to the amount precipitated in the absence of test material is a measure of the amount of chlorodibenzodioxin in the test sample.
(§2) Radioimmunoassay of small molecules requires some means of separating free hapten from antibody-bound hapten. The procedure used in the present invention, chosen because of its compatibility with detergent-solubilized hapten, involved precipitating the antibody-hapten complex with a second antibody, namely, goat antibodies against rabbit gamma-globulin. In this assay chlorodibenzodioxin from the environmental sample completes with the ^125 I-labeled hapten for binding to the antibody. Thus, the decrease in precipitation of radioactivity is a measure of the amount of (unlabeled) hapten in the test sample.
(§3) The assay buffer (hereinafter referred to as "PBS") contained, per liter, 20 mmol of potassium phosphate, 140 mmol of NaCl, and 200 mg of sodium azide. The pH was adjusted to 7.3 with NaOH. Antiserum was diluted with PBS also containing 0.1% bovine gamma globulin and 0.02% rabbit gamma globulin (w/v). Each assay tube from procedure G above received 0.2 ml of PBS, after which the tubes were held in the sonicator for 40 minutes and then cooled to room temperature. Appropriately diluted antiserum or, as control, antiserum diluant was added (0.2 ml) and, after vortex-mixing, the tubes were incubated for 40 minutes at 37°. 14000 disintegrations per minute (hereafter referred to as "DPM") or 7000 counts per minute (hereinafter referred to as "CPM", which equals DPM×counting efficiency) of [^125 I]-iodovaleramide derivative of trichlorodibenzo-p-dioxin in PBS containing 1% "Cutscum" were then added to each tube (approximately 10 μl), vortex mixed, and the tubes incubated for 1 hour at 37° followed by an additional 65 hours of incubation at 4°. Each tube next received 1.24 units of goat anti-rabbit gamma globulin in 0.2 ml of PBS containing 0.05 mM ethylenediamine tetracetic acid (hereinafter referred to as "EDTA"), was vortex mixed, and incubated for 5 hours at 4°. The tubes were centrifuged at 500×g for 20 minutes at 4°. The supernates were poured off and the tubes allowed to drain into Whatman #3 MM paper for 10 minutes. The precipitate or pellets obtained were then radioassayed for ^125 I, with 10 minute count cycles.
(§4) Standard curves were prepared using sequential two-fold dilutions of TCDD or other test compounds in benzene and evaporating the solvent as described above. Both control (blank) and TCDD-spiked tissues were extracted and processed as described above to determine general interference and recoveries. All samples were run in triplicate. […]

antiserum GC-5 = assay: Cross reactivity in chlorinated DBD radioimmunoassay, antiserum GC-5; type: binding, rabbit; conditions: 4 pmole
Source text: as §1, §2, §3, §4

antiserum F-12 [2] = assay: Specificity / cross reactivity of the radioimmunoassay, antiserum F-12; type: binding, rabbit; conditions: incubation times between 2 and 65 hours; "Cutscum"
[3] = in vivo; cited from earlier work

For `Clc1cc2oc3cc(Cl)c(Cl)cc3c2cc1Cl` [2,3,7,8-Cl4 Dibenzofuran, 2,3,7,8-tetrachlorodibenzofuran], the “reactivity with F-12 (2,3,7,8-tetrachlorodibenzo-p-dioxin v 2,3,7,8-tetrachlorodibenzofuran)” value (antiserum F-12 [1]) was “approximately the same reactivity”, the “Cross Reactivity, Antiserum F-12: 100 × (inhibition of 125I binding by 4 pmole of test compound)/(inhibition by 4 pmole of 2,3,7,8-TCDD)” value (antiserum F-12 [1]) was 92% and the “Cross Reactivity, Antiserum GC-5: 100 × (inhibition of 125I binding by 4 pmole of test compound)/(inhibition by 4 pmole of 2,3,7,8-TCDD)” value (antiserum GC-5) was 25%. For the same compound, the “ratio of inhibition by 5 ng of 2,3,7,8-DBF to that of 2,3,7,8-DBD” value (antiserum F-12 [2]) was “constant”.

For `Clc1cc2c(c(Cl)c1Cl)Oc1c(cc(Cl)c(Cl)c1Cl)O2` [1,2,3,7,8,9-hexachlorodibenzo-p-dioxin], the “effective competition in the assay (predicted)” value (antiserum F-12 [1]; if available for testing) is given as “effective competitor” and the “toxicity relative to TCDD” value [3] is given as “toxicities comparable to that of TCDD”.

For `Clc1cc2c(cc1Cl)Oc1c(cc(Cl)c(Cl)c1Cl)O2` [1,2,3,7,8-Cl5 Dibenzo-p-Dioxin], the “Cross Reactivity, Antiserum F-12: 100 × (inhibition of 125I binding by 4 pmole of test compound)/(inhibition by 4 pmole of 2,3,7,8-TCDD)” value (antiserum F-12 [1]) is listed as 97%, the “toxicity relative to TCDD” value [3] is listed as “toxicities comparable to that of TCDD” and the “Cross Reactivity, Antiserum GC-5: 100 × (inhibition of 125I binding by 4 pmole of test compound)/(inhibition by 4 pmole of 2,3,7,8-TCDD)” value (antiserum GC-5) is listed as 99%.

In the case of `Clc1cc2c(c(Cl)c1Cl)Oc1cc(Cl)c(Cl)c(Cl)c1O2` [1,2,3,6,7,8-Cl6 Dibenzo-p-Dioxin], the “Cross Reactivity, Antiserum F-12: 100 × (inhibition of 125I binding by 4 pmole of test compound)/(inhibition by 4 pmole of 2,3,7,8-TCDD)” value (antiserum F-12 [1]) is given as 9%, the “toxicity relative to TCDD” value [3] is given as “toxicities comparable to that of TCDD” and the “Cross Reactivity, Antiserum GC-5: 100 × (inhibition of 125I binding by 4 pmole of test compound)/(inhibition by 4 pmole of 2,3,7,8-TCDD)” value (antiserum GC-5) is given as 99%.
